# pEC50: −log10 of the molar value. Active and inactive are the calls of the source. The calls are words filed in the database; no cut-off is given here.
# Experiments:
# [1] = tested on: HEK-293T; assay: Agonist activity against human STING R232H variant transfected in HEK-293T cells co-expressing ISRE.ISG54 at 0.5 uM by luciferase reporter gene assay relative to control; assay type: cell-based
# [2] = tested on: HEK-293T; assay: Agonist activity against human STING R232H variant transfected in HEK-293T cells co-expressing ISRE.ISG54 at 0.2 uM by luciferase reporter gene assay relative to control; assay type: cell-based; details: filed as agonist
# [3] = Agonist activity against human STING R232H variant transfected in HEK-293T cells co-expressing ISRE.ISG54 by luciferase reporter gene assay; assay type: cell-based; details: Homo sapiens, HEK-293T
# [4] = target: T1, Stimulator of interferon genes protein (Homo sapiens, UniProt Q86WV6); assay: Agonist activity against human STING H232 variant transfected in HEK-293T cells co-expressing ISRE.ISG54 incubated for 18 hrs by luciferase reporter gene assay; assay type: cell-based
# [5] = target: T1, Stimulator of interferon genes protein; assay: Agonist activity against human STING HAQ variant expressed in HEK-293T cells co-expressing ISRE.ISG54 incubated for 18 hrs by luciferase reporter gene assay; assay type: cell-based
# [6] = target: T1, Stimulator of interferon genes protein; assay: Agonist activity against human STING AQ variant transfected in HEK-293T cells co-expressing ISRE.ISG54 incubated for 18 hrs by luciferase reporter gene assay; assay type: cell-based
# [7] = target: T1, Stimulator of interferon genes protein; assay: Agonist activity against human STING Q variant expressed in HEK293T cells co-expressing ISRE.ISG54 incubated for 18 hrs by luciferase reporter gene assay; assay type: cell-based; details: hek-293t
# [8] = target: T1, Stimulator of interferon genes protein; assay: Agonist activity against human STING HAQ variant expressed in THP-1 cells co-expressing ISRE.ISG54 incubated for 18 hrs by luciferase reporter gene assay; assay type: cell-based
# [9] = Agonist activity against cynomolgus monkey STING expressed in HEK-293T cells co-expressing co-expressing ISRE.ISG54 by luciferase reporter gene assay; assay type: cell-based; details: Macaca fascicularis
# [10] = tested on: PBMC; assay: Effect of compound on STING phosphorylation in cynomolgus monkey PBMC cells at 10 uM for 2 hrs by immunoblotting; assay type: functional, cell-based; details: Macaca fascicularis
# [11] = tested on: PBMC; assay: Effect of compound on IRF3 phosphorylation in cynomolgus monkey PBMC cells at 10 uM for 2 hrs by immunoblotting; assay type: functional, cell-based; details: Macaca fascicularis
# [12] = tested on: Stimulator of interferon genes protein (Homo sapiens), Q86WV6 [UNDEFINED MUTATION]; assay: Binding affinity to human STING R232 variant expressed in HEK-293T cells assessed as increase in thermal stability measured between 51 and 56 deg C at 10 uM for 2 hrs by cellular thermal shift assay; assay type: cell-based; details: filed as agonist
# [13] = Cmax/C0 in Balb/c mouse at 25 mg/kg, iv measured by LC-MS/MS analysis; assay type: ADME, organism-based; design: route intravenous, dose 25 mg/kg; details: in vivo
# [14] = Cmax/C0 in Balb/c mouse at 25 mg/kg, po measured by LC-MS/MS analysis; assay type: ADME, organism-based; design: route oral, dose 25 mg/kg; details: in vivo
# [15] = Cmax/C0 in monkey at 2.5 mg/kg, iv measured by LC-MS/MS analysis; assay type: ADME, organism-based, Macaca mulatta; design: route intravenous, dose 2.5 mg/kg; details: rhesus monkey, in vivo
# [16] = AUC in Balb/c mouse at 25 mg/kg, iv measured by LC-MS/MS analysis; assay type: ADME, organism-based; design: dose 25 mg/kg; details: in vivo
# [17] = AUC in Balb/c mouse at 25 mg/kg, po measured by LC-MS/MS analysis; assay type: ADME, organism-based; design: dose 25 mg/kg; details: in vivo
# [18] = AUC in monkey at 2.5 mg/kg, iv measured by LC-MS/MS analysis; assay type: ADME, organism-based, Macaca mulatta; design: dose 2.5 mg/kg; details: rhesus monkey, in vivo
# [19] = Half life in Balb/c mouse at 25 mg/kg, iv measured by LC-MS/MS analysis; assay type: ADME, organism-based; details: in vivo
# [20] = Half life in Balb/c mouse at 25 mg/kg, po measured by LC-MS/MS analysis; assay type: ADME, organism-based; details: in vivo
# [21] = Half life in monkey at 2.5 mg/kg, iv measured by LC-MS/MS analysis; assay type: ADME, organism-based, Macaca mulatta; details: rhesus monkey, in vivo
# [22] = Oral bioavailability in Balb/c mouse at 25 mg/kg measured by LC-MS/MS analysis; assay type: ADME, organism-based; details: in vivo
# [23] = tested on: PBMC; assay: Effects of compound on IL-6 production in cynomolgus monkey PBMC cells assessed as increase in IL-6 level at 10 uM and measured upto 24 hrs by ELISA; assay type: functional, cell-based; details: Macaca fascicularis
# [24] = tested on: PBMC; assay: Effects of compound on IFN-alpha production in cynomolgus monkey PBMC cells assessed as increase in […] level at 10 uM and measured upto 24 hrs by ELISA; assay type: functional, cell-based; details: Macaca fascicularis
# [25] = tested on: PBMC; assay: Effects of compound on IFN-beta production in cynomolgus monkey PBMC cells assessed as increase in […] level at 10 uM and measured upto 24 hrs by ELISA; assay type: functional, cell-based; details: Macaca fascicularis
# [26] = tested on: HEK-293T; assay: Agonist activity against human STING R232H variant transfected in HEK-293T cells co-expressing ISRE.ISG54 at 1 uM by luciferase reporter gene assay relative to control; assay type: cell-based
# T1 sequence (Q86WV6 whole entry, looked up, stated change not applied): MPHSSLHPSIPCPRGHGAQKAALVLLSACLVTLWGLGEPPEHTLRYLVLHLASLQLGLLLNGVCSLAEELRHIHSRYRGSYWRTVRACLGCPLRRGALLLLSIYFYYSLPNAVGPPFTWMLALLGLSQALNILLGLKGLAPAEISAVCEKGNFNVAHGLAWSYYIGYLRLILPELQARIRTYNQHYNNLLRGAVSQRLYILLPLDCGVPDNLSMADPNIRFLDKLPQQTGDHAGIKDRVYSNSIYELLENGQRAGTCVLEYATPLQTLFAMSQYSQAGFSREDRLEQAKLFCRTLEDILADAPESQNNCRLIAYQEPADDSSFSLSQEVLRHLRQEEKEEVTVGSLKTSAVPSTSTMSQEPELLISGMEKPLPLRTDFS
# Sequence of Stimulator of interferon genes protein (Homo sapiens), Q86WV6 [UNDEFINED MUTATION] (Q86WV6 whole entry, looked up, change not shown): as the sequence (Q86WV6 whole entry, looked up, stated change not applied) above
compound,measurement,setting,value
Cc1cc(CN2C(=O)N(C)C(C)c3ccc(C(=O)NCc4c(F)cc(F)cc4F)cc32)c(F)cn1 (configuration not stated),Activity,[1]; filed as agonist,64%
CC1c2ccc(C(=O)NCc3c(F)cc(F)cc3F)cc2N(Cc2cc(F)cc(F)c2)C(=O)N1C (racemic),Activity,[2],81%
Cc1cc(CN2C(=O)N(C)C(C)c3ccc(C(=O)NCc4c(F)cc(F)cc4F)cc32)no1 (configuration not stated),Activity,[1],6%
C[C@H]1c2ccc(C(=O)NCc3c(F)cc(F)cc3F)cc2N(Cc2c(F)cccc2Cl)C(=O)N1C,pEC50,[3],7.74
same,pEC50,[4],7.23
same,pEC50,[5],7.59
same,pEC50,[6],7.08
same,pEC50,[7],7.05
same,pEC50,[8],6.47
same,pEC50,[9],7.00
same,Activity,[10],Active
same,Activity,[11],Active
same,Activity,[12],Active
same,Cmax,[13],20100 ng/mL
same,Cmax,[14],2480 ng/mL
same,Cmax,[15],5220 ng/mL
same,AUC,[16],10900 ng·h/mL
same,AUC,[17],4850 ng·h/mL
same,AUC,[18],8050 ng·h/mL
same,half-life,[19],1.4 h
same,half-life,[20],1.6 h
same,half-life,[21],7.1 h
same,bioavailability,[22],44%
same,Activity,[23],Active
same,Activity,[24],Active
same,Activity,[25],Active
CC1c2ccc(C(=O)NCc3c(F)cc(F)cc3F)cc2N(Cc2ccccc2)C(=O)N1C (racemic),Activity,[1]; filed as agonist,74%
same,Activity,[26]; filed as agonist,73%
CC1c2ccc(C(=O)NCc3c(F)cc(F)cc3F)cc2N(Cc2ccccc2F)C(=O)N1C (configuration not stated),Activity,[1]; filed as agonist,54%
CC1c2ccc(C(=O)NCc3c(F)cc(F)cc3F)cc2N(Cc2c(F)cccc2F)C(=O)N1C (racemic),Activity,[26]; filed as agonist,64%
Cc1cc(CN2C(=O)N(C)C(C)c3ccc(C(=O)NCc4c(F)cc(F)cc4F)cc32)on1 (configuration not stated),Activity,[1],6%
Cc1cc(CN2C(=O)N(C)Cc3ccc(C(=O)NCc4c(F)cc(F)cc4F)cc32)on1,Activity,[26],12%

# From ChEMBL document CHEMBL5046256, “The discovery of potent small molecule cyclic urea activators of STING” (Eur J Med Chem, 2022)
